Assay results from patent US20260337176A1, “AUTOPHAGY REGULATOR AND USE THEREOF” (SHENZHEN INSTITUTES OF ADVANCED TECHNOLOGY, CHINESE ACADEMY …, priority 2023, published 2026).

Legend:
[1] = tested on: HeLa cells; assay: Verification of how compound enters cells (37 °C vs 4 °C); format: cell-based; conditions: 2 μM, 30 min, complete medium; for way of entering cells: 37 °C vs 4 °C
Experimental: (§1) Cancer cells HeLa and 4T1 and normal cells HEK293 were cultured using a complete medium (DMEM medium containing 10% fetal bovine serum and 1% penicillin/streptomycin) in a saturated-humidity incubator at 37 °C and 5% CO2, and passaged once every 2 to 3 days.
(§2) When the cells grew to the logarithmic phase, they were transferred to confocal dishes or 96-well plates: Cells fully grown in a T25 cell culture flask were first washed with PBS, and then digested with 1 mL of trypsin for 1 to 2 minutes (0.25% trypsin for HeLa and 4T1, and 0.025% trypsin for HEK293). After removal of trypsin, fresh medium was added, and the cells were pipetted uniformly and counted, whose density was controlled by the amount of medium added. (1) The cells were inoculated into a confocal glass-bottom culture dish, and was cultured in a 5% CO2 incubator.When the cells grew to a coverage of ~70% they were used for confocal imaging experiments. (2) The cells were inoculated into a low-attachment U-bottom 96-well plate, and when the diameter of the cell spheroids reached ~800 μm, the cell spheroids were used for antitumor evaluation.
After two groups of HeLa cells grown on confocal glass-bottom culture dishes prepared in Test example 1 were washed with PBS, one group was incubated at 37 °C in the dark for 30 min in complete medium with 2 μM of the compound synthesized in Example 1, and the other group was incubated at 4 °C for the same period in complete medium with 2 μM of compound synthesized in Example 1. After PBS washing, the incubated cells were placed in DMEM, and red fluorescence distribution in cells from the two groups was observed and recorded using a laser scanning confocal microscope (EX561 nm, EM600-700 nm).
After two groups of HeLa cells grown on confocal glass-bottom culture dishes prepared in Test example 1 were washed with PBS, one group was incubated in complete medium with 2 μM of (E)-4-(2-(5-methoxy-1H-indol-3-yl)vinyl)-1-n-octylquinolinium iodide in the dark at 37 °C for 30 min, and the other group was incubated in complete medium solution with 2 μM (E)-4-(2-(5-methoxy-1H-indol-3-yl)vinyl)-1-n-octylquinolinium iodide in the dark at 4 °C for the same period. After PBS washing, the cells were placed in DMEM, and red fluorescence in cells from the two groups was observed and recorded using a laser scanning confocal microscope (EX561 nm, EM600-700 nm).

[2] = tested on: cancer cells HeLa and 4T1 and normal cells HEK293; assay: Selectivity for tumor cells (red fluorescence intensity in cancer vs normal cells); format: cell-based; conditions: 4T1 vs HEK293, 1 μM, 30 min; for fluorescence intensity, cancer cells vs normal cells, complete medium / selectivity for cancer cells: complete medium (serum-containing)
Experimental: as §1, §2
After three groups of cancer cells HeLa and 4T1 and normal cells HEK293 individually grown on confocal glass-bottom culture dishes prepared in Test example 1 were washed with PBS, one group was incubated in complete medium (serum-containing) with 1 μM of the compound synthesized in Example 1 in the dark for 30 min, and the second group was incubated in complete medium with 1 μM of (E)-4-(2-(5-methoxy-1H-indol-3-yl)vinyl)-1-n-octylquinolinium iodide in the dark for 30 min, and the third group was incubated in DMEM (serum-free)with 1 μM of the compound synthesized in Example 1 in the dark for 30 min. After PBS washing, all the cells were placed in DMEM, and differences in red fluorescence intensity from the three groups of tumor cells and normal cells were observed and recorded under a laser scanning confocal microscope (EX561 nm, EM600-700 nm).

[3] = tested on: HeLa cells (mitochondria and lysosomes); assay: Localization observation in HeLa cells (colocalization with MitoTracker Green and LysoBrite NIR); format: cell-based; conditions: 2 μM, 30 min, confocal colocalization
Experimental: as §1
as §2, with “evaluation. […]” for “evaluation.”

[4] = tested on: HeLa cells (mitochondrial membrane potential); assay: Changes in mitochondrial membrane potential of HeLa cells (rhodamine 123); format: cell-based; conditions: 10 μM, 30 min, vs DMSO blank control
Experimental: as §1
as §2, with “(2) The cells were inoculated into a low-attachment U-bottom 96-well plate, and when the diameter of the cell spheroids reached ~800 μm, the cell spheroids were used for antitumor evaluation.” left out
Two groups of HeLa cells grown on confocal glass-bottom culture dishes prepared in Test example 1 were both incubated with 5 μM rhodamine 123 in darkness in a CO2 incubator for 30 min and then washed with PBS. […] After PBS washing, the cells were observed under a laser scanning confocal microscope, and the changes of the fluorescence brightness from rhodamine 123 in the two groups of cells were recorded.

[5] = tested on: HeLa cells (lysosomal pH); assay: Changes in lysosomal pH of HeLa cells (LysoSensor Green DND-189); format: cell-based; conditions: 10 μM, 30 min, vs DMSO blank control
Experimental: as §1
as §2, with “(2) The cells were inoculated into a low-attachment U-bottom 96-well plate, and when the diameter of the cell spheroids reached ~800 μm, the cell spheroids were used for antitumor evaluation.” left out
Two groups of HeLa cells grown on confocal glass-bottom culture dishes prepared in Test example 1 were incubated with 2 μM lysosomal green fluorescent probe (LysoSensor Green DND-189) in the dark for 30 min in a CO2 incubator, and then washed with PBS. […] The changes in the fluorescence brightness of LysoSensor Green in cells from the two groups were recorded.

[6] = tested on: HeLa cells (autophagy); assay: Imaging of autophagic vacuoles and autophagosomes in HeLa cells (Cell-Tracker Green CMFDA); format: cell-based; conditions: 10 μM, 90 min
Experimental: as §1, §2
Two groups of HeLa cells grown on confocal glass-bottom culture dishes prepared in Test example 1 were firstly washed with PBS. Then one group was incubated in the dark for 90 min in complete medium with 10 μM of the compound synthesized in Example 1, and the other group was incubated in complete medium with an equal amount of DMSO as a blank control sample. Subsequently, the cells were incubated in DMEM with 5 μM green live-cell tracking probe (Cell-Tracker Green CMFDA) for 30 min. After PBS washing, the cells were placed in DMEM and observed under a laser scanning confocal microscope. The fluorescence distribution of Cell-Tracker Green in cells from the two groups was recorded.
After HeLa cells grown on confocal glass-bottom culture dish prepared in Test example 1 was washed with PBS, they were incubated in complete medium with 10 μM of the compound synthesized in Example 2 in the dark for 90 min, and then incubated in DMEM with 5 μM green live-cell tracking probe (Cell-Tracker Green CMFDA) in the dark for 30 min followed by PBS washing. The cells were placed in DMEM and observed under a laser scanning confocal microscope. The fluorescence distribution of Cell-Tracker Green in the cells was recorded.

[7] = tested on: HeLa cells (fusion of mitochondria and lysosomes); assay: Fusion of mitochondria and lysosomes in HeLa cells (MitoTracker Green / LysoBrite NIR); format: cell-based; conditions: compound 10 μM in complete medium, ~5 h
Experimental: as §1
as §2, with “(2) The cells were inoculated into a low-attachment U-bottom 96-well plate, and when the diameter of the cell spheroids reached ~800 μm, the cell spheroids were used for antitumor evaluation.” left out
After two groups of HeLa cells grown on confocal glass-bottom culture dishes prepared in Test example 1 were washed with PBS, both were incubated with 1 μM mitochondrial green fluorescent probe (MitoTracker Green) in the dark for 30 min, followed by 30 min incubation with 1 μM lysosomal deep-red probe (LysoBrite NIR). […] The fluorescence distribution of MitoTracker Green and LysoBrite NIR in cells from the two groups was recorded.

[8] = tested on: HEK293 cell spheroids; assay: Changes in growth of HEK293 cell spheroids; format: cell-based; conditions: 10 μM, 24 h
Experimental: as §1
as §2, with “evaluation. […]” for “evaluation.”

[9] = tested on: HeLa cell spheroids; assay: Changes in growth of HeLa cell spheroids; format: cell-based; conditions: 10 μM, 24 h
Experimental: as §1, §2
After two groups of HEK293 cell spheroids and two groups of HeLa cell spheroids prepared in Test example 1 were photographed under a microscope, one group of HEK293 and HeLa cell spheroids was incubated in a complete medium containing 10 μM of the compound synthesized in Example 1 as an experimental administration group, and the other group of HEK293 and HeLa cell spheroids was incubated in a complete medium containing the same volume of DMSO as a blank control. After 24 h, photographs were taken again using the microscope to observe changes in morphology and size of the cell spheroids.

[10] = molecular target: bovine serum albumin (Bos taurus, UniProt P02769); assay: Binding constant with albumin (fluorescence quenching, double-logarithmic fitting)
Experimental: The compound synthesized in Example 1 was added at different concentrations (0 to 15 μM) to PBS containing bovine serum albumin, and then fluorescence spectra of bovine serum albumin were measured using a fluorescence spectrometer (280 nm EX).

Sequence of bovine serum albumin (P02769 25-607): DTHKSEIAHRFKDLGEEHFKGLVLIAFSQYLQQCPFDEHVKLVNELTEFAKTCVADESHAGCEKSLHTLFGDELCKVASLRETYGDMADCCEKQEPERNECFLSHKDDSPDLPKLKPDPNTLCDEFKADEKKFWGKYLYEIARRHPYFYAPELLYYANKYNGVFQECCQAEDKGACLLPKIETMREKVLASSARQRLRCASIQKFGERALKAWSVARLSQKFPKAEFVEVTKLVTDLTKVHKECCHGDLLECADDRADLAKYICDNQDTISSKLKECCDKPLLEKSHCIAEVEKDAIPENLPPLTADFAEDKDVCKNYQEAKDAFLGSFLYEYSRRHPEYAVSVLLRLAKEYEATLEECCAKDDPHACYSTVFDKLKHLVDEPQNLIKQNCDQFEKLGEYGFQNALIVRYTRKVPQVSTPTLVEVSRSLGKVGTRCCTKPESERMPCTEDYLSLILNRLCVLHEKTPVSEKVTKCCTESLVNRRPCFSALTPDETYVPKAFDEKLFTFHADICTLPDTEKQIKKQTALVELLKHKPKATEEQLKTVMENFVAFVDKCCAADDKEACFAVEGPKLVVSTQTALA

CCCCCCCC[n+]1ccc(/C=C/c2c[nH]c3ccc(OC)cc23)c2ccccc21.[I-] [(E)-4-(2-(5-methoxy-1H-indol-3-yl)vinyl)-1-n-octylquinolinium iodide, reference compound]
way of entering cells [1]: enters cells mainly via free diffusion rather than active transport | red fluorescence at 37 °C compared with 4 °C [1]: no obvious difference in fluorescence intensity | fluorescence intensity, cancer cells vs normal cells, complete medium [2]: no significant difference in fluorescence intensity between cancer cells and normal cells | selectivity for cancer cells [2]: non-selective for cancer cells

CCCCCCCCCCCC[n+]1ccc(/C=C/c2c[nH]c3ccc(OC)cc23)c2ccccc21.[I-] [Example 1, (E)-4-(2-(5-methoxy-1H-indol-3-yl)vinyl)-1-n-dodecylquinolinium iodide]
distribution of compound fluorescence in organelles [3]: distributed in the two organelles, mitochondria and lysosomes | fluorescence of rhodamine 123 [4]: greatly weakened | mitochondrial membrane potential [4]: decreases significantly | fluorescence of LysoSensor Green [5]: greatly weakened | lysosomal pH [5]: increases significantly | autophagy activation / modulation [6]: can activate autophagy | generation of vacuoles (autophagic vacuoles/vesicles and autophagosomes) in the cytoplasm [6]: a large number of vacuoles (autophagic vacuoles and autophagosomes) are generated | fusion of mitochondria and lysosomes / autophagic flux [7]: can prevent fusion of cellular mitochondria and lysosomes and block autophagic flux | overlap of mitochondrial and lysosomal fluorescence [7]: almost no overlap | way of entering cells [1]: enters cells mainly via active transport | red fluorescence at 37 °C compared with 4 °C [1]: significantly stronger | growth inhibition of normal HEK293 cell spheroids [8]: does not cause significant growth inhibition | size and shape of HEK293 cell spheroids ([8]; vs blank control): do not change significantly compared with the blank control | cell debris near HeLa cell spheroids [9]: many cell debris appear near the cell spheroids | growth of cancerous HeLa cell spheroids [9]: significantly inhibits and disrupts the growth | size of HeLa cell spheroids ([9]; vs blank control and before administration): much smaller than those in the blank control as well as than the cell spheroids before drug administration | selective killing effect on cancer cells ([9]; HeLa vs HEK293 cell spheroids): significant selective killing effect on cancer cells | fluorescence peak of bovine serum albumin ([10]; PBS, compound 0 to 15 μM, 280 nm EX): gradually decreases | affinity for albumin ([10]; bovine serum albumin in PBS): high affinity for albumin | binding constant with albumin ([10]; bovine serum albumin in PBS, compound 0 to 15 μM, 280 nm EX, double-logarithmic fit): 1.35×10^8 | fluorescence intensity, cancer cells vs normal cells, serum-free ([2]; DMEM (serum-free)): almost no difference in fluorescence intensity between cancer cells and normal cells | fluorescence intensity, cancer cells vs normal cells, complete medium [2]: the fluorescence intensity of cancer cells is significantly higher than the fluorescence intensity of normal cells | selectivity for cancer cells [2]: high selectivity for cancer cells | entry into cancer cells vs normal cells, serum-free ([2]; serum-free medium): no significant difference

CCCCCCCCCCCC[n+]1ccc(/C=C/c2c[nH]c3ccccc23)c2ccccc21.[I-] [Example 2, (E)-4-(2-(1H-indol-3-yl)vinyl)-1-n-dodecylquinolinium iodide]
distribution of compound fluorescence in organelles [3]: distributed in the two organelles, mitochondria and lysosomes | autophagy activation / modulation [6]: autophagy-modulating activity | generation of vacuoles (autophagic vacuoles/vesicles and autophagosomes) in the cytoplasm [6]: a large number of vacuoles (autophagic vesicles and autophagosomes) are generated
